According to article PMC12104861, “Structural and mechanistic basis for the regulation of the chloroplast signal recognition particle by (p)ppGpp” (Febs Letters, 2025):
Each block holds one molecule with its values, some of them ahead of it.

Tests used:
[1] = molecular target: T1, (cp)SRP54 (Arabidopsis thaliana, UniProt P37107); test: isothermal titration calorimetry; assay type: binding
T1 construct: gene FFC; residues 79-564 (transit peptide removed), NG and M domains, hexa-histidine tag kept, expressed in E. coli BL21(DE3) Rosetta
T1 sequence (P37107 79-564): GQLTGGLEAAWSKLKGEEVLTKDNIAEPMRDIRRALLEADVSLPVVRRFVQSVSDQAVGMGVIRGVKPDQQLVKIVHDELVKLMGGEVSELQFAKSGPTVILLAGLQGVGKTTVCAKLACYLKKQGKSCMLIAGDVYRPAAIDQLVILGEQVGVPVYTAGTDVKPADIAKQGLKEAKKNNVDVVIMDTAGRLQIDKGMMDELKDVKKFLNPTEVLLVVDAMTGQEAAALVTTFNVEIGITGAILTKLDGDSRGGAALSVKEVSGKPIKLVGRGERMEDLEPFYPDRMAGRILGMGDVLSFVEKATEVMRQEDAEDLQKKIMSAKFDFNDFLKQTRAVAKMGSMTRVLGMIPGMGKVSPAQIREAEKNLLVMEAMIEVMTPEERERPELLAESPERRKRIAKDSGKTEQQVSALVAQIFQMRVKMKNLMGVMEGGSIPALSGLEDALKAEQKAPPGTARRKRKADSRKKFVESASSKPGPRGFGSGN
Source text: isothermal titration calorimetry on (cp)SRP54

[2] = molecular target: T2, (cp)FtsY‐NG (Arabidopsis thaliana, UniProt O80842); test: isothermal titration calorimetry; assay type: binding
T2 construct: gene CPFTSY
T2 sequence (O80842 65-366): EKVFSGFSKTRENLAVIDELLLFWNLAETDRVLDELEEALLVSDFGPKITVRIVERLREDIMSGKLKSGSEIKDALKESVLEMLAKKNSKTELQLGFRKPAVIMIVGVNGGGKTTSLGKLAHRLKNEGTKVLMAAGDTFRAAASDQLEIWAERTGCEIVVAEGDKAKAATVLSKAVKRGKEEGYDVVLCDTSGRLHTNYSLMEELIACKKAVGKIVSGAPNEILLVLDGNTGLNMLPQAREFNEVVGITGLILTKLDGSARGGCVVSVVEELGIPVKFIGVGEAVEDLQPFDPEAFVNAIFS
Source text: isothermal titration calorimetry on (cp)FtsY‐NG

[3] = molecular target: T3, (cp)SRP54:FtsY‐NG complex (Arabidopsis thaliana, UniProt O80842+P37107); test: HPLC GTP hydrolysis assay; assay type: biochemical; conditions: 10 μM each protein, 500 μM GTP, pH 7.5, 10 mM Mg(OAc)2, 37 °C
T3 construct: gene FFC; GTPase heterodimer mixed from the two His-tagged proteins: SRP54 residues 79-564 and FtsY NG domain residues 65-366
T3 sequence (P37107 79-564): T1 sequence (P37107 79-564)
T3 sequence (O80842 65-366): T2 sequence (O80842 65-366)

[4] = molecular target: T3, (cp)SRP54:FtsY‐NG complex; test: analytical size-exclusion chromatography of complex formation; assay type: binding; conditions: nonhydrolysable GTP analogue promotes the heterodimer; 20 mM HEPES-K pH 7.5, 20 mM MgCl2
[5] = molecular target: T2, (cp)FtsY‐NG; test: X-ray crystal structure, […] Å; conditions: Mg2+; canonical guanosine nucleotide-binding site; 100 mM Tris pH 8.5, 25% PEG1000
[6] = molecular target: T3, (cp)SRP54:FtsY‐NG complex; test: HPLC GTP hydrolysis assay; assay type: biochemical; conditions: read-out: residual GTPase activity (% GTP hydrolysed) at 10 mM, 30 min
[7] = molecular target: T4, chloroplast signal recognition particle 54 kDa protein, (cp)SRP54 (Arabidopsis thaliana, UniProt P37107 79-564); test: SEC; analytical SEC, Superdex 200 Increase 10/300 GL; 100 uM of each protein in buffer C (20 mM HEPES-K pH 7.5, 200 mM NaCl, 20 mM KCl, 20 mM MgCl2) with increasing GppNHp; 30 min at room temperature; also 0.5 mM GppNHp with increasing ppGpp or pppGpp, which disrupt the complex; conditions: both partners purified
T4 construct: Arabidopsis thaliana (cp)SRP54, UniProt P37107, residues 79-564; the methods give residues 79-564; source: E. coli BL21 (DE3) Rosetta, purified (HisTrap FF, EDTA incubation, SEC Superdex 200)
T4 sequence (looked up): T1 sequence (P37107 79-564)

Kd [1]: 32.5 ± 5.38 µM
Kd [2]: 7.36 ± 1.46 µM
remaining activity at 10000 µM [6]: ~20%
Molecule: Nc1nc2c(ncn2[C@@H]2O[C@H](COP(=O)(O)OP(=O)(O)O)[C@@H](OP(=O)(O)OP(=O)(O)O)[C@H]2O)c(=O)[nH]1 [ppGpp]
X-ray crystal structure, 1.99 Å [5]: solve the crystal structure of the truncated form of (cp)FtsY from A. thaliana

Kd [1]: 47.8 ± 3.52 µM
Kd [2]: 27.6 ± 3.64 µM
remaining activity at 10000 µM [6]: ~20%
Molecule: Nc1nc2c(ncn2[C@@H]2O[C@H](COP(=O)(O)OP(=O)(O)OP(=O)(O)O)[C@@H](OP(=O)(O)OP(=O)(O)O)[C@H]2O)c(=O)[nH]1 [pppGpp]

binding result [7]: binds
B1: NG domain of the chloroplast SRP receptor (cp)FtsY, (cp)FtsY-NG (domain or fragment, Arabidopsis thaliana, UniProt O80842 65-366, looked up)
chain: T2 sequence (O80842 65-366)
notes: source: E. coli BL21 (DE3) Rosetta, purified (HisTrap FF, EDTA incubation, SEC Superdex 200)

The next lines start with the molecule.

Molecule: Nc1nc2c(ncn2[C@@H]2O[C@H](COP(=O)(O)OP(=O)(O)O)[C@@H](O)[C@H]2O)c(=O)[nH]1 [GDP]
Kd [1]: 23.5 ± 2.29 µM
Kd [2]: 7.71 ± 0.4 µM

Molecule: Nc1nc2c(ncn2[C@@H]2O[C@H](COP(=O)(O)OP(=O)(O)OP(=O)(O)O)[C@@H](O)[C@H]2O)c(=O)[nH]1 [GTP]
Kd [1]: 51.8 ± 3.54 µM
Kd [2]: 11.9 ± 2.44 µM
HPLC GTP hydrolysis assay [3]: significantly enhanced when in complex, hydrolysing nearly all available GTP

Molecule: Nc1nc2c(ncn2[C@@H]2O[C@H](COP(=O)(O)OP(=O)(O)NP(=O)(O)O)[C@@H](O)[C@H]2O)c(=O)[nH]1 [GppNHp]
analytical size-exclusion chromatography of complex formation [4]: visualized the complex between (cp)SRP54 and (cp)FtsY‐NG at increasing concentrations of GppNHp
